According to ChEMBL document CHEMBL4130365, “An overview of benzo[b]thiophene-based medicinal chemistry” (Eur J Med Chem, 2017):
≈ marks a conversion by molar mass, not a printed value.

Assays:
[1] = biological target: Tubulin; assay: Inhibition of tubulin polymerization (unknown origin); type: protein-complex assay, Homo sapiens
[2] = system: Staphylococcus aureus; assay: Antibacterial activity against Staphylococcus aureus ATCC 25923 at 40 ug/ml after 48 hrs by filter paper disc method; type: functional; details: ATCC 25923, 48 h, read-out: IZ
[3] = system: Mycobacterium tuberculosis; assay: Antimycobacterial activity against Mycobacterium tuberculosis; type: functional
[4] = system: Mycobacterium tuberculosis; assay: Growth inhibition of Mycobacterium tuberculosis relative to control; type: functional
[5] = system: NCI-H460; assay: Growth inhibition of human NCI-H460 cells; type: functional, cell-based
[6] = system: MCF7; assay: Growth inhibition of human MCF7 cells; type: functional, cell-based
[7] = system: SF-268; assay: Growth inhibition of human SF268 cells; type: functional, cell-based
[8] = system: NCI-H460; assay: Growth inhibition of human NCI-H460 cells after 48 hrs by SRB assay; type: functional, cell-based; details: NCI-H460, 48 h
[9] = system: SF-268; assay: Growth inhibition of human SF268 cells after 48 hrs by SRB assay; type: functional, cell-based; details: SF-268, 48 h
[10] = system: MCF7; assay: Growth inhibition of human MCF7 cells after 48 hrs by SRB assay; type: functional, cell-based; details: MCF7, 48 h
[11] = system: Staphylococcus aureus; assay: Antibacterial activity against Staphylococcus aureus ATCC 25923 at 1000 ug/ml after 48 hrs by filter paper disc method; type: functional; details: ATCC 25923, 48 h, read-out: IZ
[12] = system: Mycobacterium tuberculosis; assay: Antimycobacterial activity against Mycobacterium tuberculosis H37Rv ATCC 25618 after 5 days; type: functional; details: H37Rv ATCC 25618, 120 h
[13] = Antioxidant activity assessed as inhibition of ABTS radical formation relative to control; type: functional; set-up: concentration or dose not given beside the values; details: dose or concentration not given here
[14] = biological target: T1, Peroxisome proliferator-activated receptor gamma (Homo sapiens) (UniProt P37231); assay: Transactivation of GAL4 DBD-fused human PPARgamma LBD (174 to 475 residues) expressed in human HepG2 cells harboring pGL3-promoter-GAL4 at 28 uM after 24 hrs by luciferase reporter gene assay relative to control; type: cell-based
T1 sequence (whole entry): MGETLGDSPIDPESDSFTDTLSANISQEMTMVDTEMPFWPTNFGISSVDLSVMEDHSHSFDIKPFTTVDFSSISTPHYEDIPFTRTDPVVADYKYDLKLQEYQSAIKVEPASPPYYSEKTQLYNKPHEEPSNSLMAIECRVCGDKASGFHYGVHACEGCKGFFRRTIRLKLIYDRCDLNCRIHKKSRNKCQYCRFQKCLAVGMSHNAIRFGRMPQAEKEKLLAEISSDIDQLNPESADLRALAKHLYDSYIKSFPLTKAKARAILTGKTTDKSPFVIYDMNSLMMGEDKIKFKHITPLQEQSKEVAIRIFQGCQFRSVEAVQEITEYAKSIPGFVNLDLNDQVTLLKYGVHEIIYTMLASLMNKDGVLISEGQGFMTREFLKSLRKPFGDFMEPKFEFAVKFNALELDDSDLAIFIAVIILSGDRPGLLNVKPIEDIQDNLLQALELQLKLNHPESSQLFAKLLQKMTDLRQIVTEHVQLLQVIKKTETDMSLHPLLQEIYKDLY

[15] = system: Rattus norvegicus; assay: Anti-inflammatory activity in rat assessed as inhibition of cotton pellet-induced granuloma at 100 mg/kg relative to control; type: functional
[16] = system: Bacillus spizizenii; assay: Antibacterial activity against Bacillus subtilis ATCC 6633 at 1000 ug/ml after 48 hrs by filter paper disc method; type: functional; details: ATCC 6633, 48 h, read-out: IZ
[17] = Antioxidant activity assessed as inhibition of superoxide anion radical formation after 5 mins in presence of PMS and NADH by nitroblue tetrazolium method relative to control; type: functional
[18] = system: Aspergillus niger; assay: Antifungal activity against Aspergillus niger at 1000 ug/ml after 48 hrs by filter paper disc method; type: functional; details: read-out: IZ
[19] = system: Candida; assay: Antifungal activity against Candida pannical at 1000 ug/ml after 48 hrs by filter paper disc method; type: functional; details: read-out: IZ
[20] = system: Streptococcus pneumoniae; assay: Antibacterial activity against Streptococcus pneumoniae at 1000 ug/ml after 48 hrs by filter paper disc method; type: functional; details: read-out: IZ

COc1ccc(-c2sc3cc4c(cc3c2C(=O)c2cc(OC)c(OC)c(OC)c2)OCO4)cc1O
IC50 [1]: 40000 nM

COc1ccc(NC(=O)Nc2sc3ccccc3c2Cl)cc1
zone of inhibition at 40 µg/mL [2]: 15 to 16 mm

COc1ccccc1Nc1nnc(NC(=O)c2cc3cc(Oc4ccccc4)ccc3s2)s1
MIC [3]: > 6.25 µg/mL
growth inhibition (GI) [4]: 60%

N#Cc1c(/N=C/c2ccccc2)sc2c1CCCC2
IC50 [5]: 10 nM
IC50 [6]: 20 nM
IC50 [7]: 20 nM

CCOC(=O)c1c(-n2c(N)c(C#N)c(C)cc2=O)sc2c1CCCC2
IC50 [8]: 10 nM
IC50 [9]: 80 nM
IC50 [10]: 10 nM

O=C(NN1C(=O)/C(=C/c2ccccc2[N+](=O)[O-])N=C1c1ccccc1)c1sc2ccc(Cl)cc2c1Cl
MIC [3]: > 6.25 µg/mL
growth inhibition (GI) [4]: 71%

Cc1ccccc1Nc1nnc(NC(=O)c2cc3cc(Oc4ccccc4)ccc3s2)s1
MIC [3]: > 6.25 µg/mL
growth inhibition (GI) [4]: 60%

CC(=O)/C(=C\c1ccccc1O)C(=O)Nc1sc2c(c1C#N)CCCC2
IC50 [8]: 80 nM
IC50 [9]: 60 nM
IC50 [10]: 20 nM

COc1ccc(C2CC(c3ccc(NC(=O)c4sc5ccccc5c4Cl)cc3)=NN2)cc1 (configuration not stated)
zone of inhibition at 1000 µg/mL [11]: 14 mm

Cn1nnnc1SC1=CS(=O)(=O)c2ccccc21
MIC99 [12]: 2.6 µM (≈ 0.729 µg/mL)

COC1=C(Nc2sc3c(c2C(N)=O)CCCC3)C(=O)c2ccccc2C1=O
inhibition [13]: 96%

O=C(c1ccsc1)c1cccs1
Activity [14]: 114%

CC(C)Cc1ccc(C(C)C(=O)O)cc1 (configuration not stated) [IBUPROFEN]
inhibition in vivo at 100 mg/kg [15]: 31.3%

Clc1c(-c2nnc(CNc3ccccc3)o2)sc2ccccc12
zone of inhibition at 1000 µg/mL [16]: 15 mm

O=C(Nn1c(-c2ccccc2[N+](=O)[O-])nc2ccccc2c1=O)c1sc2ccccc2c1Cl
MIC [3]: 12.5 µg/mL (≈ 26.2 µM)

O=C(NNc1ccc(F)cc1)Nc1sc2ccccc2c1Cl
zone of inhibition at 40 µg/mL [2]: 15 to 16 mm

O=C(Nn1c(-c2ccccc2Cl)nc2ccccc2c1=O)c1sc2ccccc2c1Cl
MIC [3]: 6.25 µg/mL (≈ 13.4 µM)

O=C(Nc1ccc(C2=NN(c3ccc(F)cc3)C(c3ccccc3)C2)cc1)c1sc2ccccc2c1Cl (configuration not stated)
zone of inhibition at 1000 µg/mL [16]: 16 mm

C[S+]([O-])CC(=O)c1cc2ccccc2s1 (configuration not stated)
Activity [14]: 121%

CCOC(=O)c1c(NC(=O)c2c(NC(=O)CC#N)sc3c2CCC3)sc2c1CCCC2
inhibition [17]: 61.4%

CCOC(=O)c1c(NC(=O)/C(C#N)=C(/S)Nc2ccccc2)sc2c1CCCC2
inhibition [17]: 57.1%

O=S1(=O)C=C(Sc2nnc(-c3ccc(Cl)cc3)o2)c2ccccc21
MIC99 [12]: 3.9 µM (≈ 1.47 µg/mL)

CCOC(=O)c1c(NC(=O)/C(=N/Nc2ccc(Cl)cc2)C(C)=O)sc2c1CCCC2
IC50 [8]: 10 nM
IC50 [9]: 80 nM
IC50 [10]: 10 nM

COc1ccc2cc(/C=N/n3cnc4sc5c(c4c3=O)CCCC5)ccc2c1
inhibition in vivo at 100 mg/kg [15]: 28.3%

O=c1c2ccccc2nc(-c2sc3ccccc3c2Cl)n1-c1ccc([N+](=O)[O-])cc1
zone of inhibition at 1000 µg/mL [18]: 10 mm
zone of inhibition at 1000 µg/mL [19]: 17 mm

CCOC(=O)C1=C(NCC2=C(O)C(=O)c3ccccc3C2=O)SC2CCCCC12 (configuration not stated)
inhibition [13]: 63.2%

CCOC(=O)c1c(/N=C/n2nc(N)cc2O)sc2c1CCCC2
IC50 [5]: 20 nM
IC50 [6]: 10 nM
IC50 [7]: 50 nM

Cc1cc2ccc(O)cc2n(NC(=O)c2sc3cc(F)ccc3c2N)c1=O
zone of inhibition at 1000 µg/mL [16]: 25 mm
zone of inhibition at 1000 µg/mL [11]: 23 mm
zone of inhibition at 1000 µg/mL [20]: 22 mm

Cc1ccc(-n2c(S)nnc2NC(=O)c2sc3ccc(Cl)cc3c2Cl)cc1
MIC [3]: > 6.25 µg/mL
growth inhibition (GI) [4]: 64%

O=C(CC(=O)C(F)(F)F)c1cccs1
Activity [14]: 102%

COc1cc(OC)c2ccc(=O)n(NC(=O)c3sc4cc(F)ccc4c3N)c2c1
zone of inhibition at 1000 µg/mL [16]: 23 mm
zone of inhibition at 40 µg/mL [2]: 24 mm
zone of inhibition at 1000 µg/mL [18]: 26 mm
zone of inhibition at 1000 µg/mL [20]: 20 mm

COc1ccc(Nc2nnc(NC(=O)c3cc4cc(Oc5ccccc5)ccc4s3)s2)cc1
MIC [3]: > 6.25 µg/mL
growth inhibition (GI) [4]: 90%

COc1ccc(/C=C/C(=O)c2ccc(NC(=O)c3sc4ccccc4c3Cl)cc2)cc1
zone of inhibition at 1000 µg/mL [16]: 16 mm

O=C(NN1C(=O)/C(=C/c2cccc(Br)c2)N=C1c1ccccc1)c1sc2ccc(Cl)cc2c1Cl
MIC [3]: > 6.25 µg/mL
growth inhibition (GI) [4]: 67%

N#Cc1c(/N=C/n2nc(N)cc2O)sc2c1CCCC2
IC50 [5]: 80 nM
IC50 [6]: 20 nM
IC50 [7]: 60 nM

O=S1(=O)C=C(Sc2nc3ccccc3o2)c2ccccc21
MIC99 [12]: 5.7 µM (≈ 1.8 µg/mL)

N#Cc1c(/N=C/NNc2ccccc2)sc2c1CCCC2
IC50 [5]: 30 nM
IC50 [6]: 30 nM
IC50 [7]: 30 nM

COc1ccc(C2CC(c3ccc(NC(=O)c4sc5ccccc5c4Cl)cc3)=NO2)cc1 (configuration not stated)
zone of inhibition at 1000 µg/mL [19]: 16 mm

CCOC(=O)c1c(NC2=CC(=O)C(=O)c3ccccc32)sc2c1CCCC2
inhibition [13]: 65.6%

N=C1c2c(sc3c2CCCC3)N=C(SCC(=O)c2ccccc2)C1C(=O)c1ccccc1 (configuration not stated)
IC50 [5]: 20 nM
IC50 [6]: 10 nM
IC50 [7]: 10 nM

O=S1(=O)C=C(Sc2nnc(-c3ccccc3)o2)c2ccccc21
MIC99 [12]: 3.1 µM (≈ 1.06 µg/mL)

O=c1c2c3c(sc2ncn1/N=C/c1ccccc1Cl)CCCC3
inhibition in vivo at 100 mg/kg [15]: 28.2%

CCOC(=O)C1=C(NNC2=C(O)C(=O)c3ccccc3C2=O)SC2CCCCC12 (configuration not stated)
inhibition [13]: 98.9%

COc1ccc2c(C(O)c3ccc(OC)c(O)c3)c(-c3cc(OC)c(OC)c(OC)c3)sc2c1 (configuration not stated)
IC50 [1]: 6100 nM

COc1ccc(-c2sc3cc(OC)ccc3c2C(=O)c2cc(OC)c(OC)c(OC)c2)cc1
IC50 [1]: 40000 nM

Cc1cccc(NNC(=O)Nc2sc3ccccc3c2Cl)c1
zone of inhibition at 40 µg/mL [2]: 15 to 16 mm
zone of inhibition at 1000 µg/mL [20]: 16 mm

NNC1=Nc2sc3c(c2C(=O)C1C(=O)c1ccccc1)CCCC3 (configuration not stated)
IC50 [5]: 20 nM
IC50 [6]: 30 nM
IC50 [7]: 10 nM

N#Cc1c(/N=C/C2C(N)=NN=C2O)sc2c1CCCC2 (configuration not stated)
IC50 [5]: 10 nM
IC50 [6]: 20 nM
IC50 [7]: 20 nM

CCOC(=O)CSC(SCC(=O)OCC)=C(C#N)C(=O)Nc1sc2c(c1C(=O)OCC)CCCC2
inhibition [17]: 58.9%

COc1ccc(-c2nnc(SC3=CS(=O)(=O)c4ccccc43)o2)cc1
MIC99 [12]: 7.2 µM (≈ 2.68 µg/mL)

CCOC(=O)c1c(NC2=C(OC)C(=O)c3ccccc3C2=O)sc2c1CCCC2
inhibition [13]: 89.9%

CCOC(=N)n1cnc2c(sc3cc(F)ccc32)c1=O
zone of inhibition at 1000 µg/mL [16]: 24 mm
zone of inhibition at 40 µg/mL [2]: 25 mm
zone of inhibition at 1000 µg/mL [20]: 25 mm

O=c1c2ccccc2nc(-c2sc3ccccc3c2Cl)n1-c1ccc(F)cc1
zone of inhibition at 1000 µg/mL [18]: 17 mm
zone of inhibition at 1000 µg/mL [19]: 14 mm

O=C(CSc1nnc(-c2sc3ccccc3c2Cl)[nH]1)c1ccc(F)cc1
zone of inhibition at 1000 µg/mL [16]: 15 mm
zone of inhibition at 1000 µg/mL [11]: 16 mm

Cc1ccc(-c2nnc(SC3=CS(=O)(=O)c4ccccc43)o2)cc1
MIC99 [12]: 8.2 µM (≈ 2.92 µg/mL)
